Values quoted from earlier work as cited in publication PMC9090141 (Pediatric blood & cancer, 2021).
Structures can show the parent of a compound that is named as a salt. Where two headings read alike, the source gives them in different places.

How the values were obtained:
[1] = system: pediatric tumor xenograft models; conditions: in vivo; cited from earlier work
[2] = adults, 105 mg/m^2, cited from earlier work
[3] = system: pediatric cancer cell lines; conditions: cited from earlier work

COc1cccc(OCCCN)c1-c1cc(Nc2cnc(C#N)cn2)n[nH]1 [prexasertib, Prexasertib mesylate monohydrate]
tolerability [1]: well-tolerated | mean AUC0–24h ([2]; ref Hong et al. [11]): 1130 ng·h/mL | mean AUC0–24h ([2]; ref Iwasa et al. [20]): 1690 ng·h/mL | inhibition of cell proliferation, potency [3]: low nanomolar concentrations
